Reference: PubChem BioAssay AID179 (DTP/NCI, 2004)
Active and inactive are the calls of the source.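 The calls were made as follows: active = compounds giving half or more protection of infected cells from virus-caused growth loss, again on retest; inactive = the rest.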

Test system: CEM cells HIV-1 protection, formazan growth assay
Assay: NCI AIDS Antiviral Assay
Details: for IC50: measured here: growth of uninfected CEM cells
Summary of the method: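 Protection of CEM cells against HIV-1 was scored from cell growth (soluble formazan) across five concentrations, with parallel uninfected cells. Lack of protection may reflect toxicity.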

Question: How did the EC50 turn out when `O=S1(=O)c2ccccc2S(=O)(=O)c2ccccc21` was run?
Answer: Its EC50 is 87.1 µM.

Question: And the IC50?
Answer: Its IC50 is > 200 µM.

Question: What does the source list for `S=P(c1ccccc1)(N1CCCCC1)N1CCCCC1`?
Answer: EC50: > 43.7 µM; IC50: > 43.7 µM

Question: Which results are given for `COc1ccc(CCC2c3cc(OC)c(OC)cc3CCN2C)cc1OC` (stereo unspecified)?
Answer: EC50: > 676 µM; IC50: 240 µM

Question: `O=c1ccn(C2OC(COC3CCCCO3)C(OC3CCCCO3)C2OC2CCCCO2)c(=O)n1-c1ccccc1` (stereo unspecified) was tested. Which EC50 did it give?
Answer: Its EC50 is > 200 µM.

Question: What about the IC50 of the same molecule?
Answer: Its IC50 is > 200 µM.

Question: What does the source list for `CN(C)CCCN=c1c2ccccc2n(O)c2ccccc12`?
Answer: EC50: > 200 µM; IC50: 8.13 µM

Question: With `CCCCSCCC(N)P(=O)(O)O` (stereo unspecified) as the molecule, how does the EC50 read?
Answer: Its EC50 is > 200 µM.

Question: And the IC50?
Answer: Its IC50 is > 200 µM.

Question: `O=C1c2ccccc2C(=O)c2cscc21` was tested. Which EC50 did it give?
Answer: The EC50 was > 77.6 µM.

Question: What about the IC50 of the same molecule?
Answer: The IC50 was 18.6 µM.

Question: With `O=[N+]([O-])C1=C(c2ccccc2)SC=C(c2ccccc2)S1` as the molecule, how does the EC50 read?
Answer: The EC50 was > 200 µM.

Question: What about the IC50 of the same molecule?
Answer: The IC50 was 9.77 µM.

Question: Which EC50 does the source give for `CCOC(=O)c1cnc2c(ccc3ncccc32)c1OCC` here?
Answer: Its EC50 is > 120 µM.

Question: What about the IC50 of the same molecule?
Answer: Its IC50 is 72.4 µM.

Question: For `CCN1CC2(OC(=O)c3ccccc3NC(C)=O)CCC(OC)C34C1C(CC23)C1(O)CC(OC)C2CC4C1(O)C2OC` (stereo unspecified), which outcome is on record?
Answer: Its outcome is “inactive”.

Question: How did the EC50 turn out when `Cn1c(O)c(/C=N/c2ncccn2)c(=O)[nH]c1=O` was run?
Answer: The EC50 was > 200 µM.

Question: And the IC50?
Answer: Its IC50 is > 200 µM.

Question: Which EC50 does the source give for `CC(=O)CC1CCC(=O)CCC(=O)OC(CC(C)=O)CCC(=O)CCC(=O)O1` (stereo unspecified) here?
Answer: The EC50 was 170 µM.

Question: And the IC50?
Answer: The IC50 was > 200 µM.

Question: For `CC(C)CCCC(C)C1CCC2C3CC(OC4OC(CO)C(O)C(O)C4O)C4C[C@@H](OS(=O)(=O)O)CC[C@]4(C)C3CC[C@]12C` (stereo partly specified), which EC50 is on record?
Answer: Its EC50 is > 37.2 µM.

Question: What about the IC50 of the same molecule?
Answer: The IC50 was 15.1 µM.

Question: For `Cc1cc(NS(=O)(=O)c2ccc(N=Nc3cc(S(=O)(=O)O)c4ccccc4c3O)cc2)ccc1N=Nc1ccc2cc(S(=O)(=O)O)cc(S(=O)(=O)O)c2c1`, which outcome is on record?
Answer: The outcome was “active”.

Question: Which EC50 does the source give for `COc1cc(C2=C(c3cc(OC)c4ccccc4c3OC)C(=O)c3ccccc3C2=O)c(OC)c2ccccc12` here?
Answer: The EC50 was > 100 µM.

Question: What about the IC50 of the same molecule?
Answer: Its IC50 is > 100 µM.

Question: What does the source list for `N#Cc1ccc(OCCSCCCCCCCCCCSCCOc2ccc(C#N)cc2)cc1`?
Answer: EC50: > 2.88 µM; IC50: > 2.88 µM

Question: Which EC50 does the source give for `Cc1cc2c(c(C=Nc3ccc([N+](=O)[O-])cc3)c1)OC1(C=C2)Oc2ccccc2C(=O)N1C` (stereo unspecified) here?
Answer: Its EC50 is > 200 µM.

Question: And the IC50?
Answer: Its IC50 is 22.9 µM.

Question: For `O=C(O)CCCC(=O)CCCC(=O)O`, which outcome is on record?
Answer: The outcome was “inactive”.

Question: With `Clc1ccc(OCC(COc2ccccc2)Oc2nc(-c3ccccc3)nc(-c3ccccc3)n2)cc1` (stereo unspecified) as the molecule, how does the EC50 read?
Answer: The EC50 was > 3.89 µM.

Question: What about the IC50 of the same molecule?
Answer: The IC50 was > 3.89 µM.

Question: Which results are given for `OCC1OC(n2ccc3c2ncn2cnnc32)C(O)C1O` (stereo unspecified)?
Answer: EC50: > 309 µM; IC50: 29.5 µM

Question: With `CC(=O)OC1COC(Nc2nc(NCc3ccccc3)n(C)c(=O)c2N=O)C(OC(C)=O)C1OC(C)=O` (stereo unspecified) as the molecule, how does the EC50 read?
Answer: Its EC50 is > 200 µM.

Question: And the IC50?
Answer: The IC50 was > 200 µM.

Question: With `COc1ccc(-c2c3c(nc4nc(SC)nc(SC)c24)CCCC3)cc1OC` as the molecule, how does the EC50 read?
Answer: The EC50 was > 100 µM.

Question: And the IC50?
Answer: Its IC50 is 81.3 µM.

Question: What does the source list for `CN(C)Cc1cc(N=Nc2ccc(Cl)c(Cl)c2)ccc1O`?
Answer: EC50: > 200 µM; IC50: 18.6 µM

Question: Which EC50 does the source give for `CN(C)CC1CCC/C(=C\c2ccc(OC(=O)/C=C/c3ccc(Cl)cc3)cc2)C1=O` (stereo unspecified) here?
Answer: Its EC50 is > 50.1 µM.

Question: What about the IC50 of the same molecule?
Answer: The IC50 was 2.19 µM.

Question: `C[C@]12CC[C@@H]3c4ccc(OS(=O)(=O)O)cc4CC[C@H]3[C@@H]1CCC2=O` was tested. Which outcome did it give?
Answer: Its outcome is “inactive”.

Question: Which results are given for `NC1=NCC(CN2CCOCC2)O1` (stereo unspecified)?
Answer: EC50: > 200 µM; IC50: > 200 µM

Question: `O=c1cc(-c2ccc(O)cc2)oc2cc(O)cc(O)c12` was tested. Which EC50 did it give?
Answer: Its EC50 is > 55 µM.

Question: And the IC50?
Answer: Its IC50 is 20.4 µM.

Question: What does the source list for `O=C1NC(=S)N/C1=C\c1ccccc1`?
Answer: EC50: > 200 µM; IC50: 178 µM

Question: For `CC(=O)c1cccc(NC(=O)C(=O)Nn2c(N)nnc2N)c1`, which EC50 is on record?
Answer: The EC50 was > 158 µM.

Question: What about the IC50 of the same molecule?
Answer: Its IC50 is > 158 µM.

Question: Which EC50 does the source give for `OC(c1cnc2sccn12)C(F)(F)Sc1ccccc1` (stereo unspecified) here?
Answer: The EC50 was > 200 µM.

Question: And the IC50?
Answer: The IC50 was 10.2 µM.

Question: Which results are given for `Cn1ccc(C(=O)N2CCSC2=S)c(OCc2ccccc2)c1=O`?
Answer: EC50: > 200 µM; IC50: 120 µM

Question: `COc1cccc(/C=N/[N-]C(N)=O)c1[O-].[Cu+2].c1ccncc1` was tested. Which EC50 did it give?
Answer: The EC50 was > 5.75 µM.

Question: And the IC50?
Answer: The IC50 was > 5.75 µM.

Question: Which EC50 does the source give for `C/C=N/NC1=Nc2ccc(Cl)cc2C(c2ccccc2)=NN1C` here?
Answer: The EC50 was > 200 µM.

Question: And the IC50?
Answer: Its IC50 is 33.9 µM.

Question: `COc1cc(CC(=O)O)c(C(=O)c2ccc([N+](=O)[O-])cc2)cc1OC` was tested. Which EC50 did it give?
Answer: Its EC50 is > 200 µM.

Question: What about the IC50 of the same molecule?
Answer: The IC50 was > 200 µM.

Question: Which EC50 does the source give for `COc1ccn(C)c(=O)c1C#N` here?
Answer: The EC50 was > 1510 µM.

Question: What about the IC50 of the same molecule?
Answer: The IC50 was > 1510 µM.

Question: For `Cc1cc(=O)n2nc(CN3CCCCC3)sc2n1`, which EC50 is on record?
Answer: Its EC50 is > 200 µM.

Question: And the IC50?
Answer: Its IC50 is 174 µM.

Question: Which results are given for `O=C(O)c1cc(N=Cc2cc(O)ccc2O)ccc1O`?
Answer: EC50: > 182 µM; IC50: 22.9 µM

Question: For `Cc1cc2c(CC(=O)O)[nH]nc2c(C(=O)O)c1C`, which EC50 is on record?
Answer: Its EC50 is > 1000 µM.

Question: And the IC50?
Answer: The IC50 was > 1000 µM.

Question: `c1ccc(P(CCP(CCP(c2ccccc2)c2ccccc2)c2ccccc2)CCP(c2ccccc2)c2ccccc2)cc1` (stereo unspecified) was tested. Which EC50 did it give?
Answer: Its EC50 is > 10.7 µM.

Question: What about the IC50 of the same molecule?
Answer: Its IC50 is > 10.7 µM.

Question: Which EC50 does the source give for `COc1cc(Nc2cnc3ccc(N)cc3n2)cc(OC)c1OC` here?
Answer: The EC50 was > 550 µM.

Question: Which results are given for `N#Cc1cc([N+](=O)[O-])ccc1NC(=O)/C(=N\NC(=O)c1ccncc1)C(c1cnc2ccc([N+](=O)[O-])cc2n1)[N+](=O)[O-]` (stereo unspecified)?
Answer: EC50: > 45.7 µM; IC50: 8.71 µM

Question: How did the EC50 turn out when `O=C(Oc1ccccc1)c1cccc(C(=O)Oc2ccccc2)c1` was run?
Answer: Its EC50 is > 16.2 µM.

Question: And the IC50?
Answer: Its IC50 is > 16.2 µM.

Question: For `O=C(CC/C(C/C(=N/O)c1ccc(F)cc1)=N/O)N(Cc1ccccc1)Cc1ccccc1`, which EC50 is on record?
Answer: The EC50 was > 112 µM.

Question: What about the IC50 of the same molecule?
Answer: The IC50 was > 112 µM.
